Reference: patent US10052320B2, “Substituted quinoxalines as FGFR kinase inhibitors” (ASTEX THERAPEUTICS LIMITED, priority 2011, dated 2018)
Where two headings read alike, the source gives them in different places.

Columns and labels:
[1] = system: Ba/F3-FGFR1-transfected cells in the presence of 10 ng/ml murine IL3; experiment: Ba/F3-FGFR1 (plus IL3) cellular proliferation counterscreen, Alamar Blue; assay type: cell-based; settings: for IC50: Mus musculus
How it was run: (§1)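 24 h cmpd exposure, 37 °C/5% CO2; phenol red-free RPMI-1640, 10% FBS; 20000 cells/well (384) or 10000 cells/well (96); Alamar Blue (0.15 mM resazurin) 4 h; RFU ex 540/em 590.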

FGFR3 (h) = FGFR3 (h) (Homo sapiens, UniProt P22607); experiment: FGFR3 (enzymatic assay), TR-FRET; assay type: biochemical; settings: read-out: FGFR 3 pIC50 (converted)
Chain of FGFR3 (h) (P22607 23-806): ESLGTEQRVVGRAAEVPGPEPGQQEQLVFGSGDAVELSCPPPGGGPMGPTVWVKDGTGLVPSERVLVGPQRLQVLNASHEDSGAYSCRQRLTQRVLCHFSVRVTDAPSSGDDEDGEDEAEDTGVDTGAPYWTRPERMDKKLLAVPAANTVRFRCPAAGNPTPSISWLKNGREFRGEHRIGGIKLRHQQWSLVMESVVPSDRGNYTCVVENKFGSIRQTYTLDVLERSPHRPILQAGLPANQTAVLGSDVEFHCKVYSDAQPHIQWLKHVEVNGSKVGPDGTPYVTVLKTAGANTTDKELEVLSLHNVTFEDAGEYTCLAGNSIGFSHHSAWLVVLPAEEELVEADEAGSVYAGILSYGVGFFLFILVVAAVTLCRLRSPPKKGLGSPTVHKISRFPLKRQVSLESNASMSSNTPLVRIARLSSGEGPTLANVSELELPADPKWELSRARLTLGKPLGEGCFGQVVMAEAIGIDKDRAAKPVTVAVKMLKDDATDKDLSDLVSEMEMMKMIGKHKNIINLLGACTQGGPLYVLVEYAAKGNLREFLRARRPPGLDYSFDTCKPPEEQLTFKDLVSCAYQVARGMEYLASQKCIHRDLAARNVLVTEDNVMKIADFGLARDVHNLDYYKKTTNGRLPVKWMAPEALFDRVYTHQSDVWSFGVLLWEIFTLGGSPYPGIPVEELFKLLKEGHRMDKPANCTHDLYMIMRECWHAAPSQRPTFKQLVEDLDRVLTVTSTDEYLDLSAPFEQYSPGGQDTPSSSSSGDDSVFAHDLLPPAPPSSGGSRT
Protocol: In a final reaction volume of 30 μL, FGFR3 (h) (40 ng/ml) was incubated with 50 mM HEPES pH 7.5, 6 mM MnCl2, 1 mM DTT, 0.1 mM Na3VO4, 0.01% Triton-X-100, 500 nM Btn-Flt3 and 25 μM ATP in the presence of compound (1% DMSO final). […] Time-Resolved Fluorescence Resonance Energy Transfer (TR-FRET) signal (ex340 nm. Em 620 nm, em 655 nm) was measured afterwards and results are expressed in RFU (Relative Fluorescence Units).

[2] = biological target: Ba/F3-FGFR1-transfected cells (Homo sapiens, UniProt P11362); experiment: Ba/F3-FGFR1 (minus IL3) cellular proliferation assay, Alamar Blue; assay type: cell-based; settings: for BAF3-FGFR 1 (MIN IL3) 384 well pIC50: minus IL3, 384 well; for BAF3-FGFR 1 (MIN IL3) 96 well pIC50: minus IL3, 96 well
Chain of Ba/F3-FGFR1-transfected cells (P11362 whole entry, change not shown): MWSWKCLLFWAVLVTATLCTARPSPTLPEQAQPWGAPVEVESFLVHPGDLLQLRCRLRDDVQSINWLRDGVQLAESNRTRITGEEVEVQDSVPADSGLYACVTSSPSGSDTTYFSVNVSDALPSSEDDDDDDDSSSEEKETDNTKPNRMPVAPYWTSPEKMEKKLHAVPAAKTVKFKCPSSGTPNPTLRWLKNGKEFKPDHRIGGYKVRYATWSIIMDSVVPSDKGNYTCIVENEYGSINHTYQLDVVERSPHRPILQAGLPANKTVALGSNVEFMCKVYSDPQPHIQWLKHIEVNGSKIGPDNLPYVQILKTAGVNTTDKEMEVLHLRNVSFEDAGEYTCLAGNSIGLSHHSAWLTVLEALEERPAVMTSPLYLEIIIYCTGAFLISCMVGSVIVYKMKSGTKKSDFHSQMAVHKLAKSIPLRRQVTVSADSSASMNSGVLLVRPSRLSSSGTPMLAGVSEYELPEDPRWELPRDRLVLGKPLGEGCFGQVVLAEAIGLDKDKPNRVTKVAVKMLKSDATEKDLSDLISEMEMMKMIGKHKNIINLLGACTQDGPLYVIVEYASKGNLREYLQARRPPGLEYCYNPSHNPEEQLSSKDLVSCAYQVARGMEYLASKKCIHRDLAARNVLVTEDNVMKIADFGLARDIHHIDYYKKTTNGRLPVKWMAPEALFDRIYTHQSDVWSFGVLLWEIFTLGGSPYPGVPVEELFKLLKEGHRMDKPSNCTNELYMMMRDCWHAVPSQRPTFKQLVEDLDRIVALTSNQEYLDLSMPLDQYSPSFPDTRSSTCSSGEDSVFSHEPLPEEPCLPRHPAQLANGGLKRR
How it was run: as §1

[3] = biological target: Ba/F3-FGFR3-transfected cells (Homo sapiens, UniProt P22607); experiment: Ba/F3-FGFR3 (minus IL3) cellular proliferation assay, Alamar Blue; assay type: cell-based; settings: for BAF3-FGFR 3 (MIN IL3) 384 well pIC50: minus IL3, 384 well; for BAF3-FGFR 3 (MIN IL3) 96 well pIC50: minus IL3, 96 well
Chain of Ba/F3-FGFR3-transfected cells (P22607 whole entry, change not shown): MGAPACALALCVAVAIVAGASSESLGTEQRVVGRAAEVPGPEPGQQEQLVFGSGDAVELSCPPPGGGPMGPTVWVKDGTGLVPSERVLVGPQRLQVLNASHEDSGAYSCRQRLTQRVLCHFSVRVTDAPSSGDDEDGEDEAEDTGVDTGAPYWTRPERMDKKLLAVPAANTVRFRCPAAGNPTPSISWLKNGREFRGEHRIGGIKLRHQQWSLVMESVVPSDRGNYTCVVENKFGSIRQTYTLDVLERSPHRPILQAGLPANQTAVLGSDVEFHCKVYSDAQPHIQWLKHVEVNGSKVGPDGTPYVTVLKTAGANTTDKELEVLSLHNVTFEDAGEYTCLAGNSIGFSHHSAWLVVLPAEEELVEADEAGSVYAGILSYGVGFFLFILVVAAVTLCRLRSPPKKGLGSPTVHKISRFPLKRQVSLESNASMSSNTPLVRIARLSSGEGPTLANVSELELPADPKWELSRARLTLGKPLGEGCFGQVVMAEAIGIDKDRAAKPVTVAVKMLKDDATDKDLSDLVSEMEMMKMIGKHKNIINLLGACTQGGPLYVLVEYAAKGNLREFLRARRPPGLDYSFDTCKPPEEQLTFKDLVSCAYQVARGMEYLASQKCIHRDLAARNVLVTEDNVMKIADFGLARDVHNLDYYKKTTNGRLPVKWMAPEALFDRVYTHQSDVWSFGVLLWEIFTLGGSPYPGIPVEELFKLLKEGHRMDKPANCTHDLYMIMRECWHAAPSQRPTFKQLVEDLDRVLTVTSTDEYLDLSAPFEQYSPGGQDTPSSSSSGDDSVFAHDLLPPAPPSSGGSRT
How it was run: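 FGFR3-Ba/F3 cells, 20000/well (384-well) or 10000/well (96-well), phenol red free RPMI + 10% FBS; cpd in DMSO; 24 h, 37 °C/5% CO2; Alamar Blue 4 h; RFU ex540/em590.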

[4] = plus IL3, 384 well, read-out: BAF3-FGFR 1 (PLUS IL3) 384 well pIC50 (converted)
[5] = plus IL3, 96 well, read-out: BAF3-FGFR 1 (PLUS IL3) 96 well pIC50 (converted)

Compound | IC50 (FGFR3 (h)) [nM] | BAF3-FGFR 1 (MIN IL3) 384 well pIC50 [2] | BAF3-FGFR 3 (MIN IL3) 384 well pIC50 [3] | BAF3-FGFR 1 (MIN IL3) 96 well pIC50 [2] | BAF3-FGFR 3 (MIN IL3) 96 well pIC50 [3] | IC50 [1, 4] [nM] | BAF3-FGFR 1 (PLUS IL3) 384 well pIC50 ([1]; plus IL3, 384 well) | IC50 [1, 5] [nM]
COc1cc(OC)cc(N(CC(OC(C)=O)C(F)(F)F)c2ccc3ncc(-c4cccnc4)nc3c2)c1 (single isomer, unassigned) [Compound 45] |  |  |  |  |  | > 10000 |  | 
COc1cc(OC)cc(N(CC(O)C(F)(F)F)c2ccc3ncc(-c4cccnc4)nc3c2)c1 (single isomer, unassigned) [Compound 53] |  |  |  |  |  | > 10000 |  | 
COc1cc(OC)cc(N(CC(O)C(F)(F)F)c2ccc3ncc(-c4cccnc4)nc3c2)c1 (single isomer, unassigned) [Compound 54] |  |  |  |  |  |  | <5 | 
COc1cc(OC)cc(N(CC(OC(C)=O)C(F)(F)F)c2ccc3ncc(-c4cccnc4)nc3c2)c1 (single isomer, unassigned) [Compound 75] |  |  |  |  |  |  | <5 | 
COc1cc(OC)cc(N(CCNC(C)C)c2ccc3ncc(-c4ccn(C)c4)nc3c2)c1 [Compound 8] | 2.34 | 8.13 | ~7.69 |  |  | > 10000 |  | 
COc1cc(OC)cc(N(CCO)c2ccc3ncc(-c4cccnc4)nc3c2)c1 [Compound 9] | 4.68 | 6.25 | 6.59 |  |  | > 10000 |  | 
COc1cc(OC)cc(N(CCO)c2ccc3ncc(-c4ccncc4)nc3c2)c1 [Compound 11] | 4.47 | 6.01 | 6.65 |  |  | > 10000 |  | 
COc1cc(OC)cc(N(CC2CC2)c2ccc3ncc(-c4ccnn4C)nc3c2)c1 [Compound 18] |  |  |  |  |  | > 10000 |  | > 10000
COc1cc(OC)cc(N(CC2CC2)c2ccc3ncc(-c4ccc5c(ccn5C)c4)nc3c2)c1 [Compound 20] |  |  |  |  |  | > 10000 |  | 
COc1cc(OC)cc(N(CC2CC2)c2ccc3ncc(-c4cn(C)cn4)nc3c2)c1 [Compound 21] |  |  |  |  |  | > 10000 |  | > 10000
COc1cc(OC)cc(N(CC2CC2)c2ccc3ncc(C#Cc4ccncc4)nc3c2)c1 [Compound 23] | 214 | 5.09 | 5.1 | 5.41 | 5.66 | > 10000 |  | 5890
COc1cc(OC)cc(N(CC2CC2)c2ccc3ncc(-c4cn(CCN5CCOCC5)nn4)nc3c2)c1 [Compound 24] | 9.55 | 5.39 | ~5.7 | 5.42 | 5.59 | > 10000 |  | > 10000
COc1cc(OC)cc(N(CC2CC2)c2ccc3ncc(-c4cc[nH]c4)nc3c2)c1 [Compound 36] |  |  |  |  |  | > 10000 |  | > 10000
COc1cc(OC)cc(N(CC2CC2)c2ccc3ncc(-c4ccn(CCO)c4)nc3c2)c1 [Compound 56] |  |  |  |  |  | > 10000 |  | > 10000
COc1cc(OC)cc(N(CC2CC2)c2ccc3ncc(Nc4cnn(C)c4)nc3c2)c1 [Compound 61] |  |  |  |  |  | > 10000 |  | 6920
COc1cc(OC)cc(N(CC2CC2)c2ccc3ncc(-c4cnn(C)n4)nc3c2)c1 [Compound 70] |  |  |  |  |  | > 10000 |  | > 10000
COc1cc(OC)cc(N(CC2CC2)c2ccc3ncc(-c4cn(C)nn4)nc3c2)c1 [Compound 71] |  |  |  |  |  | > 10000 |  | > 10000
COc1cc(OC)cc(N(CC2CC2)c2ccc3ncc(-c4ccn(C)c4)nc3c2)c1 [Compound 73] |  |  |  |  |  | > 10000 |  | > 10000
CNCCN(c1cc(OC)cc(OC)c1)c1ccc2ncc(-c3ccc(NC(=O)OC(C)(C)C)nc3)nc2c1 [Compound 81] | 10 | 5.66 | 5.91 |  |  |  |  | 
COc1cc(OC)cc(N(CC2CC2)c2ccc3ncc(C(=O)NCc4ccc(F)cc4)nc3c2)c1 [Compound 101] | > 1000 | <5 | <5 | <5 | <5 |  |  | 
COc1cc(OC)cc(N(CC2CC2)c2ccc3ncc(Nc4nncs4)nc3c2)c1 [Compound 102] | > 1000 | <5 | <5 | <5 | <5 |  |  | 
COc1cc(OC)cc(N(CCO)c2ccc3ncc(-c4ccc(N)nc4)nc3c2)c1 [Compound 106] | 3.02 | 6.455 | ~6.54 |  |  |  |  | 
CNC(=O)c1cc(-c2cnc3ccc(N(CCNCC(F)(F)F)c4cc(OC)cc(OC)c4)cc3n2)ccn1 [Compound 113] | 33.9 | 5.44 | ~5.63 |  |  |  |  | 
COc1cc(OC)cc(N(CCCO)c2ccc3ncc(-c4ccc(C)nc4)nc3c2)c1 [Compound 115] | 4.79 | 5.93 | 6.29 |  |  |  |  | 
COc1cc(OC)cc(N(CCNC(C)C)c2ccc3ncc(-c4ccccc4)nc3c2)c1 [Compound 121] | 5.89 | 6.45 | 6.42 |  |  |  |  | 

Further lines, with some results ahead:

IC50 (FGFR3 (h)) [nM] | BAF3-FGFR 1 (MIN IL3) 384 well pIC50 [2] | BAF3-FGFR 3 (MIN IL3) 384 well pIC50 [3] | BAF3-FGFR 1 (MIN IL3) 96 well pIC50 [2] | BAF3-FGFR 3 (MIN IL3) 96 well pIC50 [3] | Compound | IC50 [1, 4] [nM] | BAF3-FGFR 1 (PLUS IL3) 384 well pIC50 ([1]; plus IL3, 384 well) | IC50 [1, 5] [nM]
10 | 5.91 | 6.62 |  |  | COCCCN(c1cc(OC)cc(OC)c1)c1ccc2ncc(-c3ccn(C)c3)nc2c1 [Compound 3] | > 10000 |  | 
6.92 | 5.84 | ~6.27 |  |  | COCCN(c1cc(OC)cc(OC)c1)c1ccc2ncc(-c3ccn(C)c3)nc2c1 [Compound 6] | > 10000 |  | 
10.2 | 7.55 | 7.53 |  |  | COc1cc(OC)cc(N(CCNC(C)C)c2ccc3ncc(-c4cccnc4)nc3c2)c1 [Compound 10] | > 10000 |  | 
4.47 | 7.27 | ~7.03 |  |  | COc1cc(OC)cc(N(CCNC(C)C)c2ccc3ncc(-c4ccncc4)nc3c2)c1 [Compound 12] | > 10000 |  | 
9.55 | 6.61 | 7.03 |  |  | CNC(=O)c1cc(-c2cnc3ccc(N(CCNC(C)C)c4cc(OC)cc(OC)c4)cc3n2)ccn1 [Compound 14] | ~7080 |  | 
3.2 | 6.975 | ~7.09 |  |  | COc1cc(OC)cc(N(CCNC(C)C)c2ccc3ncc(-c4ccc(N)nc4)nc3c2)c1 [Compound 17] | ~7760 |  | 
148 | <5 | <5 | 5.03 | 5.18 | COc1cc(OC)cc(N(CC2CC2)c2ccc3ncc(-c4nnn(C)n4)nc3c2)c1 [Compound 82] |  |  | 
550 | <5 | <5 |  | 5.18 | COc1cc(OC)cc(N(CC2CC2)c2ccc3ncc(C(=O)NCCN4CCOCC4)nc3c2)c1 [Compound 96] |  |  | 
676 | <5 | <5 |  | <5 | COc1cc(OC)cc(N(CC2CC2)c2ccc3ncc(-c4nccs4)nc3c2)c1 [Compound 97] |  |  | 
191 | <5 | <5 |  | <5 | COc1cc(OC)cc(N(CC2CC2)c2ccc3ncc(Nc4nccs4)nc3c2)c1 [Compound 98] |  |  | 
~1000 | <5 | <5 | <5 | <5 | COc1cc(OC)cc(N(CC2CC2)c2ccc3ncc(-c4cccn4C)nc3c2)c1 [Compound 103] |  |  | 
13.8 | 5.32 | 5.53 |  |  | COc1cc(OC)cc(N(CC2CC2)c2ccc3ncc(-n4cnc(CO)c4)nc3c2)c1 [Compound 105] |  |  | 
11.7 | 6.63 | ~6.77 |  |  | CNC(=O)c1cc(-c2cnc3ccc(N(CCN4CCCC4CO)c4cc(OC)cc(OC)c4)cc3n2)ccn1 (stereo not shown) [Compound 109] |  |  | 
81.3 | 5.37 | ~6.04 |  |  | COc1cc(OC)cc(N(CCCO)c2ccc3ncc(-c4ccc(N(C)C(=O)OC(C)(C)C)nc4)nc3c2)c1 [Compound 125] |  |  | 
17.8 | 5.31 | 5.51 |  |  | COc1cc(OC)cc(N(CCCO)c2ccc3ncc(-c4ccnc(C(=O)NCCCCN)c4)nc3c2)c1 [Compound 126] |  |  | 
